Laboratory results taken from US8691943B2, “Antimicrobial activity of chicken NK-2 peptide against apicomplexan protozoa” (priority 2011, dated 2014).
Where no end group is shown, it is not given here.

Columns and labels:
[1] = tested on: E. acervulina sporozoites; assay: Eimeria acervulina sporozoite viability by trypan blue exclusion; type: cell-based; settings: for effect on E. acervulina sporozoites viability: peptide 1 μM to 10 μM, 1 h, 3 h, 6 h at 41° C.
Procedure: FIG. 1 depicts the cytotoxic activity of chicken NK-lysin peptides for Eimeria acervulina sporozoites. E. acervulina sporozoites (2×10^6/ml) were incubated with control medium (HBSS) and 4 kinds of NK-lysin peptides (50 ug/ml, 100 ug/ml) for 3 h at 41° C. Sporozoite viability was assessed by trypan blue exclusion. Experiments were done in triplicate and considered significant at P<0.01.
For investigating the kinetics of NK-lysin peptides, E. acervulina sporozoites (1.5×10^6/ml) were incubated with NK-lysin-transfected COS7 cell supernatant (1:1 dilution) and various concentrations of melittin, cNK-2 or cNK-4 for 1 h, 3 h and 6 h at 41° C.; sporozoite viability was assessed by trypan blue exclusion. Experiments were performed in triplicate.
E. acervulina sporozoites were obtained by excystation of sporulated oocysts (Dulski and Turner. 1988. Avian Dis. 32:235-239). After breaking the oocyst membrane with 0.5 mm glass beads by Mini-beadbeater (BioSpec Products Inc., Bartlesville, Okla.), sporocysts were purified by isopycnic centrifugation on a Percoll gradient, washed in cold PBS, then treated with excystation solution (0.25% trypsin, 0.014 M taurocholic acid) for 30 min at 41° C. to release sporozoites. Excystation fluid was filtered and the sporozoites were washed 3 times with cold HBSS at 3,000 rpm for 10 min at 4° C. and resuspended to 1.0×10^6/ml in HBSS or 10% RPMI-1640 medium (Sigma) (Hong et al. 2008, supra). The sporozoites were incubated for 1 h, 3 h or 6 h at 41° C. with NK-lysin-transfected COS7 cell supernatants, melittin or synthetic chicken NK-lysin peptides, stained with trypan blue, and viable sporozoites were counted microscopically.
To compare the effect of four kinds of chicken NK-lysin peptides on Eimeria acervulina sporozoites, Eimeria sporozoites were incubated in 50 μg/ml and 100 ug/ml of each peptide for 3 h at 41° C., respectively. The HBSS was used as a control. […] In contrast, other peptides or control didn't kill Eimeria sporozoites (FIG. 1).
We next investigated the cytolytic activity of cNK-2 lytic peptide at increasing concentrations from 1 μM to 10 μM (FIG. 2). Melittin was used as a positive control to gain peptide-induced lysis in the absence of a phospholipid preference (Dempsey, C. E. 1990. Biochim. Biophys. Acta 1031:143-161).

E. coli strain BMH71-18 = assay: Bactericidal activity, broth microdilution assay (OD600); type: cell-based; settings: peptides 0-40 μg/ml, 18 h
Procedure: Ampicillin (0-20 μg/ml), chicken NK-lysin peptides (0-40 μg/ml), or LB broth alone were added to cultures of the bacteria and incubated for 18 h at […]. Bacterial growth was determined by measuring OD600. X axis: Ampicillin concentrations.
To evaluate the bactericidal activity of NK-lysin peptides, the minimum inhibitory concentration (MIC) values of the purified recombinant protein against E. coil strain BMH71-18 were determined using a standardized broth microdilution assay. Ampicillin MIC values against the bacteria were determined in parallel as positive controls. The assays were performed in accordance with Clinical and Laboratory Standards Institute (CLSI; Formerly National Committee for Clinical Laboratory Standards [NCCLS]) guidelines (NCCLS. 1999. In: Methods for Determining Bacterial Activity of Antimicrobial Agents, NCCLC, Wayne, Pa.; NCCLS. 2002. In: Performance Standards for Antimicrobial Disk and Dilution Susceptibility Tests for Bacteria isolated from Animals; Approved Standard, 2nd ed. NCCLS, Wayne, Pa.). […] The wells were incubated for 18 h at 37° C. with ambient air circulation and without shaking, and the optical density (OD) of each well was measured on a Synergy HT™ multi-modal plate reader (Bio-Tec Instruments, Winooski, Vt.) at 600 nm. Background values, derived from non-inoculated wells containing broth alone, were subtracted from all readings.

E. maxima = assay: Membrane permeabilization in E. maxima (data not shown); type: cell-based, Eimeria maxima
N. caninum tachyzoites = assay: Neospora caninum tachyzoite viability by trypan blue exclusion; type: cell-based; settings: 41° C.; for tachyzoites killed: 1 h incubation; for tachyzoites killing: 3 h incubation
Procedure: FIG. 3 depicts the dose- and time-dependant effects of chicken cNK-2 peptide on Neospora caninum tachyzoites. For investigating kinetics of NK-lysin peptides, N. caninum tachyzoites (1.0×10^7/ml) were incubated with medium (control) and two different concentrations (5 uM and 10 uM) of cNK-2 for 1 h and 3 h at 41° C.; tachyzoite viability was assessed by trypan blue exclusion. Experiments were performed in triplicate. RPMI medium alone served as the negative control. Data were expressed as means±SEM. Differences were considered statistically significant at P<0.05 by the Duncan's multiple range test.
N. caninum tachyzoites were prepared as described with modifications (Tuo et al. 2005. Infect. Immun. 73:5093-5100). N. caninum (NC-1 isolate) tachyzoites were cultured on bovine monocytes (Lindsay and Dubey. 1989. J. Parasitol. 75:163-165) in RPMI 1640 medium supplemented with 2% fetal calf serum and 50 μg/ml gentamicin at 37° C. in a 95% air and 5% CO2 atmosphere. N. caninum tachyzoite-infected host cells were collected, passed through 20- and 27-gauge needles, and pelleted by centrifugation at 1,000×g for 20 min at 4° C. Tachyzoites were then purified by centrifugation over a 40% Percoll gradient at 2,000×g for 30 min at 4° C. The tachyzoite pellet was then resuspended in PBS (pH 7.4) and washed three times. Finally tachyzoites were resuspended to 5.0×10^6/ml in 10% RPMI-1640 medium (Sigma). The tachyzoites were incubated for 1 h or 3 h at 41° C. with synthetic chicken NK-lysin peptides (5 μM and 10 μM), stained with trypan blue, and viable tachyzoites were counted microscopically.

C. parvum sporozoites = assay: Cryptosporidum parvum sporozoite viability by two-component fluorescent dye exclusion assay; type: cell-based; settings: 0.017, 0.17, 17 and 170 μg/ml; 2 hrs incubation; P<0.01 at 170 μg/ml, P<0.05 at the others
Procedure: FIG. 4 depicts the effect of NK lysine on Cryptosporidum parvum sporozoites. Freshly prepared C. parvum sporozoites were incubated with different doses of cNK-2 for […] and Cryptosporidia sporozoite viability was measured by a two-component fluorescent dye exclusion assay (LIVE/DEAD Reduced Biohazard Viability/Cytotoxicity Kits, Molecular Probes L-7013). The result is presented as the means plus standard deviations. Statistical analysis was performed by the paired t-test with the Statcel2 software. The level of significance was set at a P value of <0.05.
C. parvum sporozoites were prepared as described with modifications (Riggs and Perryman. 1987. Infect. Immun. 55:2081-2087). The C. parvum sporozoites were incubated with various concentrations of cNK-2 peptides or BSA and viability was assessed after 2 hrs of incubation. Viability of the sporozoites was measured by a two-component fluorescent dye exclusion assay (LIVE/DEAD Reduced Biohazard Viability/Cytotoxicity Kits, Molecular Probes L-7013). Results are presented as the means plus standard deviations. […] Statistical analysis was performed with the Statcel2 software.

E. tenella = assay: Membrane permeabilization in E. tenella (data not shown); type: cell-based, Eimeria tenella
E. acervulina oocysts = assay: In ovo plus intraperitoneal administration, protection against live oral E. acervulina challenge; type: in vivo, chickens
Procedure: FIGS. 6A and 6B depict the effect of cNK-2 treatment on body weight gains of birds infected with E. acervulina. At 1 day post-hatch, the chickens were infected with 500 sporulated oocysts of E. acervulina. Body weights were assessed at 5 days (FIG. 6A) and 10 days (FIG. 6B) post-infection. […] Each bar represents the mean±SEM values.
FIG. 7 depicts the effect of cNK-2 treatment on fecal oocyst shedding after oral challenge infection with live E. acervulina. At 1 day post-hatch, chickens were infected with 500 sporulated oocysts of E. acervulina and fecal oocysts were measured starting from day 5 to day 10 post-infection. Each bar represents the mean±SEM values.
For protection studies, broiler eggs at the 18-day-old embryo stage were allocated into 4 groups of 12 eggs each. An in ovo injector was used to inoculate eggs. The two control groups (Groups 1 and 2) received no NK lysin peptide and were mock inoculated with Hanks Balanced Salt Solution (HBSS) only. Two groups were inoculated with an in ova injection of cNK-2 peptide (ARS005-1; RD-27) at doses of 1 μg/embryo (Group 3) or 5 μg/embryo (Group 4). Three days later, birds were hatched and moved to brooder petersime units. Birds of Groups 3 and 4 were given a second injection with cNK-2 peptide at doses of 1 μg/bird and 5 μg/bird, respectively, using an intraperitoneal route as shown in Table 2. Birds that had been injected in ova with HBSS alone were not given an additional intraperitoneal injection (Table 2).
At one day post hatch, the birds from Groups 2, 3 and 4 were challenged orally with 500 sporulated, live Eimeria acervulina oocysts. Body weights were measured at 1 day post hatch, i.e., on the day of challenge (coccidia infection), at 5 days (FIG. 6A) and at 10 days (FIG. 6B) post-infection.
The effect of cNK-2 peptide on fecal oocyst shedding was also determined. […] Oocysts were collected between 5 and 10 days post infection and the number were counted using an established method (FIG. 7).

Compound: CC[C@H](C)[C@H](NC(=O)CN)C(=O)NCC(=O)N[C@@H](C)C(=O)N[C@H](C(=O)N[C@@H](CC(C)C)C(=O)N[C@@H](CCCCN)C(=O)N[C@H](C(=O)N[C@@H](CC(C)C)C(=O)N[C@H](C(=O)N[C@H](C(=O)NCC(=O)N[C@@H](CC(C)C)C(=O)N1CCC[C@H]1C(=O)N[C@@H](C)C(=O)N[C@@H](CC(C)C)C(=O)N[C@H](C(=O)N[C@@H](CO)C(=O)N[C@@H](Cc1c[nH]c2ccccc12)C(=O)N[C@H](C(=O)N[C@@H](CCCCN)C(=O)N[C@@H](CCCNC(=N)N)C(=O)N[C@@H](CCCCN)C(=O)N[C@@H](CCCNC(=N)N)C(=O)N[C@@H](CCC(N)=O)C(=O)N[C@@H](CCC(N)=O)C(N)=O)[C@@H](C)CC)[C@@H](C)CC)[C@@H](C)O)[C@@H](C)O)C(C)C)C(C)C [Melittin, reference compound]
- cytolytic effect on E. acervulina sporozoites ([1]; melittin positive control at 2.5 μM and 5 μM): total disruption of the cellular membrane

Compound: cNK-4: synthetic chicken NK-lysin peptide (88-117), AINNALNKVCSTGRRQRSICKQLLKKLRQQ, SEQ ID NO. 4 (listed as Gallus gallus)
- effect on E. acervulina sporozoites viability [1]: no effect
- antimicrobial activity against bacterial growth (E. coli strain BMH71-18): Neither chicken NK-lysin nor the NK-lysin peptides, cNK-2 and cNK-4, demonstrated antimicrobial activity

Compound: RRQRSICKQLLKKLRQQLSDALQNNDD-NH2 [cNK-2]
- membrane permeabilization (E. maxima): caused membrane permeabilization
- killing of E. acervulina sporozoites (viability, trypan blue) ([1]; 50 μg/ml or 100 μg/ml peptide, 3 h at 41° C., HBSS control, P<0.01): significantly killed
- effect on E. acervulina sporozoites viability [1]: time- and dose-dependent effect
- antimicrobial activity against bacterial growth (E. coli strain BMH71-18): Neither chicken NK-lysin nor the NK-lysin peptides, cNK-2 and cNK-4, demonstrated antimicrobial activity
- tachyzoites killed (N. caninum tachyzoites; 5 uM): about 46%
- tachyzoites killing (N. caninum tachyzoites; 5 uM): 71%
- tachyzoites killed (N. caninum tachyzoites; 10 uM): ~60%
- tachyzoites killing (N. caninum tachyzoites; 10 uM): 86%
- viability of C. parvum sporozoites (C. parvum sporozoites): significant decreases in the viability
- membrane permeabilization (E. tenella): caused membrane permeabilization
- body weights of infected birds compared with HBSS control birds (E. acervulina oocysts; 1 μg and 5 μg in ovo then intraperitoneal, 5 and 10 days post-infection, 500 oocysts, P<0.05): significantly higher body weights
- fecal oocyst shedding (E. acervulina oocysts; dose of at least 5 μg, oocysts collected 5 to 10 days post infection, P<0.05): significant reduction of fecal oocyst shedding
- protective effect against live oral challenge infection (E. acervulina oocysts; in ovo injections followed by intraperitoneal injections, 500 E. acervulina oocysts): significant protective effect
